Test results as given in the supplement of paper PMC10307832.

Assays:
Assay in all cases: relative viability (nuclei count vs DMSO), 5 days (fraction); higher = more cells survive
[1] = compound: O=c1[nH]cc(F)c(=O)[nH]1 [5-Fluorouracil] + COc1cccc2cc(-c3nc([C@H]4CC[C@H](C(=O)O)CC4)n4ncnc(N)c34)[nH]c12 [OSI-027] (partner 0.5 µM)
In short: (§1)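 Each reported value is a median over duplicate plates. It expresses relative viability: treated-well nuclei count divided by vehicle-well nuclei count. Lung cancer cell lines in 1536-well plates were dosed by pin tool a day after seeding, alone with one drug or with a fixed anchor-drug dose plus five library-drug doses (not always all listed) in √10 steps, and nuclei were counted after 5 days.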

[2] = compound: CN[C@@H]1C[C@H]2O[C@@](C)([C@@H]1OC)n1c3ccccc3c3c4c(c5c6ccccc6n2c5c31)C(=O)NC4 [Staurosporine] + Nc1nc2[nH]cc(CCc3ccc(C(=O)N[C@@H](CCC(=O)O)C(=O)O)cc3)c2c(=O)[nH]1 [Pemetrexed] (partner 0.2 µM)
In short: as §1

[3] = compound: CC1=C(CC(=O)O)c2cc(F)ccc2/C1=C\c1ccc([S+](C)[O-])cc1 [Sulindac] + CC(C)C[C@H](NC(=O)[C@H](Cc1ccccc1)NC(=O)c1cnccn1)B(O)O [Bortezomib] (partner 0.002 µM)
In short: as §1

[4] = compound: CC1=C(CC(=O)O)c2cc(F)ccc2/C1=C\c1ccc([S+](C)[O-])cc1 [Sulindac] + C[C@]1(O)C[C@@H](c2nc(-c3ccc4ccc(-c5ccccc5)nc4c3)c3c(N)nccn32)C1 [Linsitinib] (partner 1 µM)
In short: as §1

Cell Line	relative viability ([1]; first compound 0.02 µM)	relative viability ([1]; first compound 0.2 µM)	relative viability ([1]; first compound 0.6325 µM)	relative viability ([1]; first compound 2 µM)	relative viability ([2]; first compound 0.005 µM)	relative viability ([2]; first compound 0.01581 µM)	relative viability ([2]; first compound 0.05 µM)	relative viability ([2]; first compound 0.1581 µM)	relative viability ([2]; first compound 0.5 µM)	relative viability ([3]; first compound 0.08 µM)	relative viability ([3]; first compound 0.253 µM)	relative viability ([3]; first compound 0.8 µM)	relative viability ([3]; first compound 2.53 µM)	relative viability ([3]; first compound 8 µM)	relative viability ([4]; first compound 0.08 µM)	relative viability ([4]; first compound 0.253 µM)	relative viability ([4]; first compound 0.8 µM)	relative viability ([4]; first compound 2.53 µM)	relative viability ([4]; first compound 8 µM)
NCI-H1734	0.58	0.655	0.513	0.398	0.394	0.305	0.338	0.133	0.141	1.01	0.937	0.731	0.914	1.25	0.987	0.932	0.575	0.903	1.13
NCI-H1755	0.703	0.702	0.389	0.264	0.348	0.321	0.236	0.224	0.223	1.25	1.03	0.85	1.01	1.04	1.16	1.07	0.906	1	1.05
NCI-H1792	0.838	0.602	0.317	0.222	0.28	0.0706	0.0856	0.056	0.0352	1.24	0.995		0.987	1.24	0.557	0.561		0.455	0.558
NCI-H1915	0.561	0.616	0.591	0.525	0.486	0.231	0.219	0.15	0.0886	1.18	1.08	0.861	0.956	1.05	1.13	1.14	1.09	1.11	1.07
NCI-H1975	0.793	0.793	0.417	0.26	0.246	0.185	0.184	0.128	0.118	0.387	0.461		0.334	0.441	1.14	1.03		1.07	1.05
NCI-H1993	0.565	0.501	0.538	0.537	0.631	0.428	0.539	0.332	0.267	1.11	1.1	1.03	0.945	1.29	0.741	0.674	0.789	0.735	0.82
NCI-H2009	0.618	0.674	0.478	0.379	0.895	0.389	0.222	0.156	0.112	1.1	1.16	0.877	1.01	1.04	1.22	1.3	1.05	1.13	1.23
NCI-H2023	0.369	0.176	0.103	0.0879	0.183	0.154	0.0933	0.0756	0.0692	1.13	1.04	0.666	1	1.07	0.808	0.725	0.43	0.712	0.757
NCI-H2085	0.69	0.676	0.771	0.502	0.635	0.307	0.429	0.206	0.242	0.976	1.06	0.917	1.12	1.11	0.894	0.856	0.876	0.848	0.912
NCI-H2087	0.555	0.563	0.464	0.346	0.548	0.531	0.429	0.171	0.117	1.17	0.835	0.695	0.892	1.09	1.01	1.13	0.938	0.964	1.17
NCI-H2126	0.589	0.39	0.302	0.365	0.64	0.262	0.4	0.279	0.211	1.2	1.15	1.06	1.2	1.19	0.608	0.713	0.661	0.726	0.728
NCI-H2228	0.404	0.55	0.332	0.329	0.288	0.185	0.192		0.116	1.31	1.02	0.45	1.31	1.01	0.704	0.659	0.765	0.701	1.2
NCI-H2347	0.939	0.322	0.298	0.329	0.36	0.321	0.32	0.329	0.291	0.884	0.97	0.704	0.86	1.11	1.07	1.09	0.982	1.06	1.16
NCI-H2405	0.633	0.661	0.701	0.604	0.417	0.174	0.14	0.0988	0.1	1.01	1.01	0.888	0.96	1.06	1.01	0.934	0.852	0.918	1.13
NCI-H3122	1.04	0.871	0.349		0.183		0.177	0.167	0.105	1.05	1.01	1.1	1.04	1.02	1.07	1.01	0.928	1.07	1.07
PC-3 [JPC-3]	0.824	0.805	0.726	0.625	0.975	0.444	0.516	0.389	0.347	0.967	0.796	1.02	0.907	0.862	0.932	0.95	0.951	0.905	0.984
PC-14	0.876	0.976	0.747	0.296	0.159	0.131	0.0585	0.0487	0.048	1.05	0.902		0.929	0.783	1.01	1.02	0.708	1.02	1.07
